Data from patent publication US9290789B2, “Method for measuring cells, and reagent for cell measurement” (HITACHI HIGH-TECHNOLOGIES CORPORATION, priority 2011, dated 2016).

Columns and labels:
[1] = test system: Methylobacterium extorquens; assay: Intracellular ATP level by ATP luminescence method; assay type: cell-based
Description: An M. extorquens cell suspension was prepared according to the following procedures. M. extorquens was cultured with agitation in 5 mL of SCD liquid medium (Nissui Pharmaceutical Co., Ltd.) for 72 hours at 25° C. The culture solution (medium) was dispensed into tubes, and then centrifuged for 10 minutes at 10000 rpm, so as to collect cells onto the tube bottoms. Supernatant was removed, and then water was added instead, to suspend cells. Centrifugation was performed again for 10 minutes at 10000 rpm, so as to collect cells onto the tube bottoms. This step was repeated 3 times, medium components were removed, and thus a cell suspension was prepared. Subsequently, the cells were cultured with agitation in water for injection for 3 days at 37° C., so that a cell suspension for ATP luminescence measurement was prepared. […]
Reagents included in a Lucifer HS set (Kikkoman Biochemifa Company) were used as reagents for ATP luminescence measurement. In addition, the Lucifer HS set comprises an ATP elimination enzyme, an ATP extraction reagent, and a luminescent reagent included therewith. […]
100 μL of an ATP extraction solution was added to 100 μL of the mixture after heating. 50 μL of each sample after ATP extraction was added to 50 μL of the luminescent reagent. The thus generated luminescence was measured.
10 μL each of glucose (Wako Pure Chemical Industries, Ltd.), alanine (Wako Pure Chemical Industries, Ltd.), ATPase, 10% methanol, and a phosphate buffer (pH 7.4) (Invitrogen) were added to 50 μL of the M. extorquens cell suspension, thereby preparing a total of 100 μL of a mixture. When glucose, alanine, and methanol were not added, the solution was adjusted to a total 100 μL volume with a phosphate buffer (Table 3, sample Nos. 1 to 5). The mixture was heated at 37° C. for 30 minutes. In the extracellular ATP removal•intracellular ATP increase step (for removing ATP outside of viable cells and increasing ATP within viable cells), 100 μL of an ATP extraction solution was added to 100 μL of the mixture (Table 3, sample Nos. 1 to 4). For comparison of the ATP extraction efficiency of methanol, in the ATP extraction step, 100 μL, of the mixture was mixed with 100 μL of a 1% methanol-containing ATP extraction solution (Table 3, sample No. 5). After ATP extraction, 50 μL of the sample was added to 50 μL of the luminescent reagent, and then the thus generated luminescence was measured. […]
10 μL each of glucose, alanine, ATPase, and if necessary, 10 (v/v) % methanol were added to 50 μL of the M. extorquens cell suspension. Finally, a phosphate buffer (pH 7.4) (Invitrogen) was added for adjustment to a total 100 μL volume. The final concentrations of glucose and alanine ranged from 0.1 mM to 100 mM, and the final concentrations of ATPase and methanol were 10 (v/v) % and 1 (v/v) %, respectively. Each mixture was heated at 37° C. for 30 minutes. 100 μL of an ATP extraction solution was added to 100 μL of the heated mixture, and then 50 μL of sample after ATP extraction was added to 50 μL of a luminescent reagent. The thus generated luminescence was measured.
10 μL each of glucose, alanine, ATPase, and methanol were added to 50 μL of the M. extorquens cell suspension. Finally, a phosphate buffer (pH 7.4) (Invitrogen) was added for adjustment to a total 100 μL volume. The final concentrations of glucose and alanine were each 0.1 mM, the final ATPase concentration was 10 (v/v) %, and the final methanol concentrations ranged from 0% to 80%. Each mixture was heated at 37° C. for 30 minutes. After heating, to remove methanol-containing mixtures, all mixtures were subjected to centrifugal filtration (1 min, 2000 rpm) using Ultrafree-MC, and then mixtures as filtrates were discarded. Subsequently, 200 μL of water was added onto the filter and filtrated to wash the filter. In addition, washing was repeated 5 times. […]

ATPase = assay: Residual ATPase activity according to methanol concentrations; assay type: biochemical; details: 37° C. for 30 minutes
Description: 10 μL of an ATPase-containing ATP elimination solution (Kikkoman Biochemifa Company, ATP elimination reagent included with a Lucifer HS set) was mixed with 80 μL of methanol, the concentration of which had been adjusted. An ATP solution (2×10^6 amol/10 μL) was added to the solution and then it was left to stand at 37° C. for 30 minutes. In addition, the final methanol concentrations were adjusted to 0.1 to 80 (v/v) %.
To measure the remaining ATP level after the addition of the above mixture to a luminescent reagent, the mixture was diluted in water to a methanol concentration of 0.1 (v/v) % or less, assuring that the methanol would not affect the ATP luminescent reaction (Reference Example 2, Table 2). Subsequently, 50 μL of the diluted solution (1×10^3 amol ATP/50 μL) was added to 50 μL of the luminescent reagent, and then the luminescence level was measured. Furthermore, an ATP solution (1×10^3 amol/50 μL) to which no ATPase had been added was prepared. The luminescence level according to the ATP solution was also measured. The luminescence level of the ATPase-free ATP solution was considered almost the same as that of an ATP solution to which ATP had been added after the loss of ATPase activity.

Staphylococcus aureus = assay: Cell viability (colony count) after methanol exposure; assay type: cell-based; details: maximum of 30 (v/v) % methanol, 1 minute; colony count at 0% methanol = 100%
Description: (§1) 10 μL of a cell suspension and 90 μL of methanol, the concentration of which had been adjusted, were mixed, thereby preparing 100 μL of a cell/methanol suspension. The final methanol concentrations ranged from 0 to 80 (v/v) %. As microorganisms (cells), Bacillus subtilis (bacterium, spores, ATCC 6633), Staphylococcus aureus (bacterium, aerobic, ATCC 6538), and Candida albicans (fungus, yeast, ATCC 10231) were used. Each cell suspension was mixed with methanol and then the mixture was left to stand for 1 minute. In the case of bacteria, the mixture was applied and spread over R2A medium (Nissui Pharmaceutical Co., Ltd.) and then cultured at 25° C. for 7 days. In the case of fungi, the mixture was applied and spread over PDA medium (Nissui Pharmaceutical Co., Ltd.) and then cultured at 25° C. for 5 days. After culture, the colony count was then measured according to each methanol concentration. The colony count in the case of 0% methanol was designated as 100% cell viability. Cell viability according to each methanol concentration was examined.

Candida albicans = assay: as above; assay type: cell-based; details: maximum of 30 (v/v) % methanol, 1 minute; colony count at 0% methanol = 100%
Description: as §1

Bacillus subtilis = assay: as above; assay type: cell-based; details: 80 (v/v) % methanol, 1 minute; colony count at 0% methanol = 100%
Description: as §1

[2] = test system: ATP•luciferase•luciferin reaction; assay: Effect of methanol on ATP luminescent reaction; assay type: biochemical; details: 1000 amol ATP/50 μL; for Relative luminescence: methanol-free ATP solution = 100
Description: 1 mL of an ATP solution (2×10^5 amol ATP/mL, Kikkoman Biochemifa Company Lucifer ATP standard reagent set) was mixed with 10 μl to 5 mL of 100% methanol (Wako Pure Chemical Industries, Ltd.). Water (Invitrogen) was further added to each solution, and thus ATP/methanol solutions (10 mL each) with final methanol concentrations ranging from 0.1 to 50 (v/v) % were prepared (ATP concentration: 2×10^4 amol ATP/mL). Subsequently, 50 μL of the ATP/methanol solution and 50 μL of a luminescent reagent (Kikkoman Biochemifa Company, included with a Lucifer HS set) were mixed to cause a luminescent reaction to take place. The resulting luminescence levels were measured by photocounting using a photomultiplier.
For comparison, 1 mL of a methanol-free ATP solution (2×10^4 amol ATP/mL) was prepared. Subsequently, 50 μL of an ATP solution and 50 μL of the luminescent reagent were mixed to cause a luminescent reaction to take place, and then the luminescence level was measured.

CO [Methanol, methanol]
Intracellular ATP level of M. extorquens ([1]; 1% methanol added to 0.1 mM alanine and 0.1 mM glucose (FIG. 4C)): 1.2 amol/CFU
Intracellular ATP level of M. extorquens, % of the maximum ([1]; methanol 0.1% to 20%, 0.1 mM glucose, 0.1 mM alanine, 10% ATPase, filtration): ≥ 70%
Intracellular ATP level of M. extorquens ([1]; methanol 0.1% to 20%, 0.1 mM glucose, 0.1 mM alanine, 10% ATPase, filtration (FIGS. 5A and B)): 1.1 amol/CFU
Intracellular ATP level of M. extorquens ([1]; methanol 0.5%, 0.1 mM glucose, 0.1 mM alanine, 10% ATPase, filtration (FIG. 5A)): 1.5 amol/CFU
Intracellular ATP level of M. extorquens ([1]; methanol 30% or more, 0.1 mM glucose, 0.1 mM alanine, 10% ATPase, filtration (FIG. 5B)): 0.15 amol/CFU
Decrease of intracellular ATP level of M. extorquens ([1]; methanol 30% or more, relative to the maximum at 0.5% methanol): 90%
Residual ATPase activity (ATPase; methanol concentration 80 (v/v) %): 20%
Residual ATPase activity (ATPase; methanol concentrations 0 to 50 (v/v) %): retained the activity
Cell viability of S. aureus (Staphylococcus aureus): ≥ 90%
Cell viability of C. albicans (Candida albicans): ≥ 90%
Cell viability of B. subtilis (Bacillus subtilis): 100%
Luminescence level ([2]; 0.1% Methanol): 12703 CPS
Relative luminescence ([2]; 0.1% Methanol): 110%
Luminescence level ([2]; 1% Methanol): 10200 CPS
Relative luminescence ([2]; 1% Methanol): 88%
Luminescence level ([2]; 10% Methanol): 3345 CPS
Relative luminescence ([2]; 10% Methanol): 29%
Luminescence level ([2]; 50% Methanol): 13 CPS
Luminescence level ([2]; 50% Methanol, listed as methanol): almost no fluorescence
Relative luminescence ([2]; 50% Methanol): 0%

O=C[C@H](O)[C@@H](O)[C@H](O)[C@H](O)CO [glucose]
Intracellular ATP level of M. extorquens ([1]; glucose varied 0.1 mM to 100 mM in the presence of 1 (v/v) % methanol and 50 mM alanine (FIG. 4B)): about 0.5 amol/CFU

C[C@H](N)C(=O)O [alanine]
Intracellular ATP level of M. extorquens ([1]; alanine 1 mM or less in the presence of 1 (v/v) % methanol and 100 mM glucose (FIG. 4A)): 0.9 amol/CFU
